Patent US20040106685A1, “Method of preventing and/or treating asthma using PBPB” (COUNCIL OF SCIENTIFIC & INDUSTRIAL RESEARCH, priority 2002, published 2004)

Experiments:
Type in all cases: in vivo, BALB/c male mice
eosinophils in BAL fluid = assay: Eosinophils in BAL fluid by flow cytometry
Procedure: (§1) In another embodiment of the present invention, wherein after testing the compound for the preventive as well as for therapeutic values in intact conscious mice, mice were sacrificed for collecting the blood and bronchoalveolar lavage (bat) fluid to measure the levels of IgE, cytokines 11-4, IL-5 and IFN-y and homophile. Ovalbumin specific IgE levels m the sera and the levels of IL-4, IL-5 and IFN-y in the BAL fluid were measured by Elisa kits. The prevalence of eosinophils was determined in BAL fluid by flow cytometry.
(§2) BALB/c male mice, eight-ten weeks old, weighing 18-22 grams were acclimatized for one week under the laboratory conditions. Mice were sensitized by injecting intraperitoneally 0.2 ml of saline containing 10 micrograms ovalbumin (ova) (sigma, USA) adsorbed on 2 mg aluminum hydroxide gel on days 0, 7 and 14 followed by aerosol inhalation for 5 consecutive days, from day 19 to 23 with 2% ova (in saline w/v) for 30 minutes daily. Aerosol challenge was performed by placing mice in Plexiglas chamber (20×20×10 cm^3) and ova or saline alone was aerosolized using a nebulizer (devilbiss, model 645, USA) at an airflow rate of 7 litre/minute, sham-sensitized mice received 0.2 ml of saline containing only 2 mg al(oh)3 on days, 0, 7 and 14 followed by inhalation of aerosol of saline without ova for 5 consecutive days.
(§3) The compound PBPB (sigma, USA) was dissolved in absolute alcohol (10 mg/ml). PBPB (20ul by volume) was given orally to each mouse. […] Initial measurements of specific airway conductance and airway reactivity of all the animals were carried out before starting the experiment ovalbumin induced airway constriction and airway reactivity were measured after sensitization protocol was over the measurements were done as described below (example 3,4 and 5). […]
The levels of eosinophils in BAL fluid were detected by flowcytometry (facsvantage, Becton Dickinson, USA) using the method described by bedner et al (1999). The cells were gated on the basis of the size and fluorescence (FSC versus FL 1) and the percentage of the gated cells was determined by cell quest software. […]

[1] = tested on: mouse model of asthma (ova sensitized mice); assay: Airway reactivity to methacholine (MCh PD35) in sensitized mice
Procedure: as §2
The compound PBPB (sigma, USA) was dissolved in absolute alcohol (10 mg/ml). PBPB (20ul by volume) was given orally to each mouse. To evaluate the effect of PBPB on sensitization and the development of impaired airway sensitivity (preventive effect, FIG. 1a), five groups (six mice in each) of mice were used. One group was sham-sensitized control and another group was kept as sensitized control. […] Initial measurements of specific airway conductance and airway reactivity of all the animals were carried out before starting the experiment ovalbumin induced airway constriction and airway reactivity were measured after sensitization protocol was over the measurements were done as described below (example 3,4 and 5).
(§4) To examine the therapeutic effect of PBPB on sensitized mice (therapeutic effect, FIG. ib), mice were sensitized as before without PBPB treatment and airway constriction to ova and airway reactivity to methacholine were measured as described below animals showing at least 40% fall in specific airway conductance to ova aerosol challenge were selected for this study the sensitized mice were randomly divided into 4 groups of 6 mice in each group three groups of mice were given daily three different concentrations of PBPB in 20 ul of alcohol adjusted to contain PBPB in a dose of 0.1, and 10 mg/kg body weight respectively for week fourth group was fed only 20 ul alcohol for one week to be used as sensitized control airway constriction and airway reactivity were again measured thereafter.
Airway calibre was measured in the term of specific airway conductance (SGaw). […] The change in the box pressure in response to breathing of the housed mouse was determined with a transducer (validyne mp 45+2 cmh20) and carrier amplifier (validyne model CD 15 carrier demodulator) that were connected to the x-channel of an oscilloscope Tektronix, model 6116, USA). […]

IFN-gamma, IL-4 and IL-5 = assay: Cytokines IFN-gamma, IL-4 and IL-5 in BAL fluid by Elisa kits; settings: for IL-4 in BAL fluid / IL-5 in BAL fluid / IFN-γ in BAL fluid: mean SEM, n = 4; for IL-4 in BAL fluid: sensitized 143.0 ± 3.0; for IL-5 in BAL fluid: sensitized 158.7 ± 22.5; for IFN-γ in BAL fluid: sensitized 162.0 ± 45.2; for IFN-γ:IL-4 ratio in BAL fluid: sensitized 1.1
Procedure: as §1, §2
(§5) The compound PBPB (sigma, USA) was dissolved in absolute alcohol (10 mg/ml). PBPB (20ul by volume) was given orally to each mouse. To evaluate the effect of PBPB on sensitization and the development of impaired airway sensitivity (preventive effect, FIG. 1a), five groups (six mice in each) of mice were used. One group was sham-sensitized control and another group was kept as sensitized control. The remaining three groups were given orally three different concentrations of PBPB (0.1, and 10 mg/kg body weight) daily starting from first to the last day of the sensitization the sham-sensitized and sensitized control mice were given only vehicle (20 ul alcohol) in a similar fashion. Initial measurements of specific airway conductance and airway reactivity of all the animals were carried out before starting the experiment ovalbumin induced airway constriction and airway reactivity were measured after sensitization protocol was over the measurements were done as described below (example 3,4 and 5).
as §4
The cytokines IFN-gamma, IL-4 and IL-5 were measured in the BAL fluid by enzyme-linked ImmunoSorbent assay (Elisa) kits (BD pharmingen, USA) as per the manufacturer's protocol.

Ova-specific IgE = assay: Serum ova-specific IgE levels by Elisa
Procedure: as §1, §2, §3
Serum IgE levels were measured in all the groups of mice by Elisa (FIG. 7). Ova-specific IgE levels were measured by enzyme linked immuno sorbent assay (Elisa). […]

[2] = tested on: mouse model of asthma (ova sensitized mice); assay: Ova-induced airway constriction (fall of SGaw) in sensitized mice, dual-chamber whole body plethysmography
Procedure: as §2, §5, §4
Airway calibre was measured in the term of specific airway conductance (SGaw). SGaw is a measure of the airway caliber and was estimated using a dual-chamber whole body plethysmograph (Agrawal, 1981). The dual-chamber whole body plethysmograph was designed in our laboratory to suit the size of mouse (FIG. 2). The change in the box pressure in response to breathing of the housed mouse was determined with a transducer (validyne mp 45+2 cmh20) and carrier amplifier (validyne model CD 15 carrier demodulator) that were connected to the x-channel of an oscilloscope Tektronix, model 6116, USA). […]
Animals were acclimatized in the body box in the beginning of the study and at the time of recording the loop, each individual mouse was housed for 10 minutes to set the basal loop correctly. Values of the slopes were recorded on getting at least three similar loops. […]

[3] = PBPB 1 mg/kg body weight after sensitization
[4] = PBPB 1 mg/kg body weight during sensitization

O=C(CBr)c1ccc(Br)cc1 [PBPB, parabromophenacyl bromide]
effective dose (eosinophils in BAL fluid; administration to mice during and after sensitization, inhibition of inflammation (eosinophils in BAL fluid)): 1 mg/kg body weight | levels of eosinophils in BAL fluid (eosinophils in BAL fluid; preventive: oral 1 mg/kg body weight during sensitization): prevented the rise in the eosinophils levels | levels of eosinophils in BAL fluid (eosinophils in BAL fluid; therapeutic: 1 mg/kg body weight in already sensitized mice, p<0.01 vs vehicle treated sensitized mice): reduced the levels of eosinophils significantly | MCh PD35, of its initial values ([1]; preventive: treatment during sensitization, 10 mg/kg body weight): 115% | MCh PD35 recovery, of its initial levels ([1]; preventive: treatment during sensitization, dose 'mg/kg body weight' (figure missing), 24 hours after last ova challenge): 93% | MCh PD35 recovered, of the basal value ([1]; therapeutic: oral to sensitized mice already having airway hyper reactivity, 1 mg/kg body weight): over 81% | MCh PD35 recovery, of the basal value ([1]; therapeutic: oral to sensitized mice already having airway hyper reactivity, 10 mg/kg body weight): 94% | IL-4 in BAL fluid (IFN-gamma, IL-4 and IL-5; [3]): 42.4 ± 4.9 pg/mL | IL-5 in BAL fluid (IFN-gamma, IL-4 and IL-5; [3]): 53.4 ± 2.2 pg/mL | IFN-γ in BAL fluid (IFN-gamma, IL-4 and IL-5; [3]): 425.1 ± 54.0 pg/mL | IFN-γ:IL-4 ratio in BAL fluid (IFN-gamma, IL-4 and IL-5; [3]): 10 | IL-4 in BAL fluid (IFN-gamma, IL-4 and IL-5; [4]): 91.0 ± 13.2 pg/mL | IL-5 in BAL fluid (IFN-gamma, IL-4 and IL-5; [4]): 75.1 ± 7.4 pg/mL | IFN-γ in BAL fluid (IFN-gamma, IL-4 and IL-5; [4]): 402 ± 14.4 pg/mL | IFN-γ:IL-4 ratio in BAL fluid (IFN-gamma, IL-4 and IL-5; [4]): 4.4 | serum IgE levels, effect of higher dose (Ova-specific IgE; preventive: 10 mg of PBPB/kg body weight during sensitization): did not show additional effect | mean serum IgE level lower compared to sensitized animals (Ova-specific IgE; preventive: oral 1 mg/kg body weight during sensitization, sensitized mice 384±22.8 ng/ml): 40% | fall in serum IgE levels compared to vehicle treated sensitized mice (Ova-specific IgE; therapeutic: 1 mg/kg body weight fed for one week to already sensitized mice, p<0.05): 47% | fall of SGaw level from basal level after ova challenge ([2]; preventive: oral 0.1 mg PBPB/kg body weight during sensitization, sensitized control fall 48%): 17% | fall of SGaw after ova challenge, effect of further dose increase ([2]; preventive: oral 'lo mg/kg body weight' during sensitization): did not show any additional effect | fall of SGaw from basal levels after ova challenge ([2]; preventive: oral 'mg PBPB/kg body weight' (dose figure missing) during sensitization, sensitized control fall 48%): 4% | SGaw levels recovered, of basal SGaw levels ([2]; therapeutic: oral for one week to already sensitized mice, 10 mg PBPB/kg body weight): 96% | SGaw levels recovered, of normal basal levels ([2]; therapeutic: oral for one week to already sensitized mice, dose 'mg/kg body weight' (figure missing)): 86%
